“Also recorded” adds a separate entry of the source.

Results on three compounds are retold here after patent US20090074895A1, “COMPOSITION AND USES THEREOF” (VANADIS BIOSCIENCE LTD, priority 2005, published 2009).

Format in all cases: in vivo, rat
The subject of experiment [1] is diabetic rats. Description: Serum cholesterol concentrations after 7 day oral treatment of diabetic rats (lovastatin, MKH, combination). As to conditions: for HDL cholesterol / LDL cholesterol / LDL/HDL ratio / Total cholesterol: 7 day oral treatment, lovastatin 20 mg/kg/day, MKH 2 mg/kg/day, n = 8; for Change in total cholesterol (in words): 7 days oral treatment.
Experiment [2] deals with diabetic rats. Put plainly: C peptide serum concentration, diabetic rats. To be noted: for C peptide serum concentration: doses daily for 5 days orally, n = 8. The protocol: (§1) In this study white, adult male Wistar rats with average weights between 200 to 300 grams were used. During the study, the animals had free access to food and water and were exposed to changes of dark and light every 12 hours. Access to the food was restricted 12 hours before measurement of glucose blood level with free access to water.
(§2) The experiment was performed on a normoglycaemic group (Group 1, 32 rats, 8 per treatment) and diabetic rats (Group 2, 32 rats, 8 per treatment). For the diabetic rat experiments diabetes was induced with intraperitoneal injection of alloxan 100 mg/kg. Alloxan is very well verified diabetogenic substance for inducing diabetes in rats and other animal species (rabbit, dog, mice et cetera). See, for example, McLetchie, J.R. Coll Physicians Edinb, 32: 134-142, 2002; Lenzen & Panten, Diabetologia, 31: 337-342, 1988; Shaw et al., Lancet, 11: 384-386, 1943; Goldner & Gomori, Endocrinology, 35: 241-268, 1943.
(§3) 1). Saline solution, 1 ml/kg, per orally, daily for 5 days (control group); 2). Stevioside, 20 mg/kg, orally, daily for 5 days; 3). Sodium salt of 3α,7α-dihydroxy-12-oxo-5β-cholanate (monoketocholic acid-MKC), 4 mg/kg, orally, daily for 5 days; and 4). 1 ml/kg of the composition described in Example 1, orally, daily for 5 days.
(§4) In the diabetic rat the criterion for successful diabetes induction was blood glucose greater than 20 mmol/L on the third day after the last alloxan dose after 3 hours of fasting with free access to water.
15 minutes after the 5th dose, the animals were exposed to an oral glucose tolerance test (OGTT) using 4 g/kg, orally. Glucose blood concentrations were measured before the treatment, after the 5th dose, before OGTT, and 30 minutes after OGTT. […]
All biochemical analyses of serum were done by standard procedures, as recommended by the International Federation for Clinical Chemistry (IFCC), on automatic spectrophotometer LISA 300 plus with International Quality Control. The following were measured in serum: […]

Experiment [3] deals with normoglycaemic rats. Put plainly: C peptide serum concentration, normoglycaemic rats. As to conditions: for Effect on C peptide levels (in words): non-diabetic rats, 5 days treatment; for C peptide serum concentration: normoglycaemic rats, doses daily for 5 days orally, n = 8. The protocol:
as §1, §2, §3
(§5) 15 minutes after the 5th dose, the animals were exposed to an oral glucose tolerance test (OGTT) using 4 g/kg, orally. Glucose blood concentrations were measured before the treatment, after the 5th dose, before OGTT, and 30 minutes after OGTT. Then the animals were anaesthetised with urethane injected intraperitoneally, 750 mg/kg, and blood samples for further biochemical analyses were taken by cardiopunction.
(§6) All biochemical analyses of serum were done by standard procedures, as recommended by the International Federation for Clinical Chemistry (IFCC), on automatic spectrophotometer LISA 300 plus with International Quality Control. The following were measured in serum:
(§7) 1). Triglycerides concentration (GPO-PAP kit obtained from Boehringer Mannheim GmbH (Mannheim, Germany) in accordance with the manufacturers instructions) 2). Total low density lipoprotein (LDL) and high density lipoprotein (HDL) 3). Cholesterol concentration (CHOD-PAP kit obtained from Boehringer Mannheim GmbH (Mannheim, Germany) in accordance with the manufacturers instructions); and 4). C-peptide concentration.

In experiment [4] the test system is diabetic Wistar rats. Description: Blood glucose and OGTT after 5 days oral treatment, alloxan-diabetic rats. To be noted: for Glucose blood concentration, After OGTT / Glucose blood concentration, After treatment (one dose daily for 5 days) / Glucose blood concentration, Before treatment: diabetic Wistar rats (alloxan), n = 8; for Glucose blood concentration, After OGTT: 30 minutes after OGTT (glucose 4 g/kg orally) after the 5th dose; for Glucose blood concentration, After treatment (one dose daily for 5 days): MKH 4 mg/kg, stevioside 20 mg/kg orally per day, before OGTT; for Glucose blood concentration, Before treatment: baseline of the group before treatment; for Effect on glucose levels under increased glucose loading during the OGTT (in words): substances given alone, rat group not given. The method, then:
as §1, §2, §3, §4, §5

Experiment [5] has as its system normoglycaemic Wistar rats. Description: Blood glucose and oral glucose tolerance test (OGTT) after 5 days oral treatment, normoglycaemic rats. To be noted: n = 8; for Glucose blood concentration, After OGTT: 30 minutes after OGTT (glucose 4 g/kg orally) after the 5th dose; for Glucose blood concentration, After treatment (one dose daily for 5 days): MKH 4 mg/kg, stevioside 20 mg/kg orally per day, before OGTT; for Glucose blood concentration, Before treatment: baseline of the group before treatment. The protocol: as §1, §2, §3, §5

Experiment [6] deals with normoglycaemic rats. Put plainly: Serum cholesterol and lipid profile after 5 days treatment, normoglycaemic rats. As to conditions: for Change in HDL serum cholesterol concentration (in words) / Change in LDL serum cholesterol concentration versus control (in words) / Change in total cholesterol serum concentration (in words): normoglycaemic (non-diabetic) rats, 5 days treatment; for HDL serum cholesterol concentration / LDL serum cholesterol concentration / Serum total cholesterol concentration / LDL:HDL Ratio (ratios of means): normoglycaemic rats, n = 8; for HDL serum cholesterol concentration / LDL serum cholesterol concentration / Serum total cholesterol concentration: 5 days treatment orally; for LDL:HDL Ratio (ratios of means): after 5 days treatment. The protocol: as §3, §5, §6, §7
(§8) The composition from Example 1 was trialled to see the effect on cholesterol levels and on serum lipid profiles. Generally the desired outcome was a decrease in low density lipoprotein (LDL), with no concomitant decrease in high density lipoprotein (HDL). It was also hypothesised that there would be a compatibility with glycaemic effects shown in Example 2.
(§9) The experimental procedures were essentially those described in Example 2.

Experiment [7] concerns diabetic rats. Put plainly: Serum cholesterol and lipid profile after 5 days treatment, diabetic rats. To be noted: for HDL cholesterol serum concentration / LDL cholesterol serum concentration / Serum total cholesterol concentration: 5 days treatment orally; for HDL cholesterol serum concentration / LDL cholesterol serum concentration / Serum total cholesterol concentration / LDL:HDL Ratio (ratios of means): n = 8; for LDL:HDL Ratio (ratios of means): after 5 days treatment. The protocol:
as §2, §3, §5, §6, §7, §8, §9

[8] abbreviates: 7 days treatment, MKH 2 mg/kg, lovastatin 20 mg/kg orally.

As for `CC[C@H](C)C(=O)O[C@H]1C[C@@H](C)C=C2C=C[C@H](C)[C@H](CC[C@@H]3C[C@@H](O)CC(=O)O3)[C@H]21` [Lovastatin, reference compound], in experiment [1], the HDL cholesterol turned out to be 0.74 ± 0.16 mmol/L, the LDL cholesterol stood at 0.09 ± 0.17 mmol/L, the LDL/HDL ratio was 0.15 ± 0.29 and the Total cholesterol worked out at 1.19 ± 0.06 mmol/L. The “Change in total cholesterol (in words)” value in experiment [1] is given as “reduced total cholesterol by a similar amount”. Moreover, the “Change in HDL levels (in words)” value in experiment [1] (setting [8]) was “reduced HDLs significantly”.
With `C[C@H](CCC(=O)[O-])[C@H]1CC[C@H]2[C@@H]3[C@H](O)C[C@@H]4C[C@H](O)CC[C@]4(C)[C@H]3CC(=O)[C@]12C.[Na+]` [MKH, Sodium salt of 3α,7α-dihydroxy-12-oxo-5β-cholanate], the “C peptide serum concentration” value in experiment [2] turned out to be 178.38 ± 34.25 pmol/L. Further, in experiment [1], the HDL cholesterol came to 0.89 ± 0.14 mmol/L, the LDL cholesterol was 0.03 ± 0.04 mmol/L, the LDL/HDL ratio was 0.04 ± 0.04 and the Total cholesterol is 1.21 ± 0.14 mmol/L. Moreover, the “Change in total cholesterol (in words)” value in experiment [1] is “reduced total cholesterol by a similar amount”. Moreover, in experiment [1] (setting [8]), the “Change in HDL levels (in words)” value was “this effect was not observed; also recorded: did not do so” and the “Change in LDL levels (in words)” value was “very highly significant decrease; also recorded: significantly greater than that achieved by Lovastatin”. Further, in experiment [1] (Day 7), the “Change in LDL:HDL ratio (in words)” value is on record as “significant decrease”. In experiment [3], the “Effect on C peptide levels (in words)” value is on record as “Neither stevioside or 3α,7α-dihydroxy-12-oxo-5β-cholanate alone had statistically significant effects” and the “C peptide serum concentration” value turned out to be 230.87 ± 80.64 pmol/L. Besides, in experiment [4], the “Glucose blood concentration, After OGTT” value is 27.05 ± 1.17 mmol/L; the “Glucose blood concentration, After treatment (one dose daily for 5 days)” value amounted to 22.34 ± 1.15 x mmol/L; the “Glucose blood concentration, Before treatment” value is 24.73 ± 2.15 mmol/L; the “Effect on glucose levels under increased glucose loading during the OGTT (in words)” value is “beneficial effects”. Also, the “Effect on glucose levels before and after the OGTT (in words)” value in experiment [4] (diabetic rats, 5 days treatment) is given as “significant decrease”. In experiment [5], the “Glucose blood concentration, After OGTT” value is 8.52 ± 3.19 mmol/L; the “Glucose blood concentration, After treatment (one dose daily for 5 days)” value was 5.42 ± 1.15 mmol/L; the “Glucose blood concentration, Before treatment” value is 6.82 ± 2.15 mmol/L. Further, in experiment [6], the “Change in HDL serum cholesterol concentration (in words)” value was “no significant changes”, the “Change in LDL serum cholesterol concentration versus control (in words)” value is given as “significantly decreased (one third of control values)”, the “Change in total cholesterol serum concentration (in words)” value is “no significant changes” and the “HDL serum cholesterol concentration” value turned out to be 0.73 ± 0.20 mmol/L. In addition, in experiment [6], the “LDL serum cholesterol concentration” value came out at 0.11 ± 0.04 mmol/L, the “Serum total cholesterol concentration” value stood at 0.99 ± 0.30 mmol/L and the “LDL:HDL Ratio (ratios of means)” value turned out to be 0.01. Besides, in experiment [7] (5 days treatment), the “Change in LDL cholesterol levels (in words)” value was “decreases in LDL levels and while these were not statistically significant”; the “Change in LDL:HDL ratio (in words)” value is on record as “slight increase”; the “Change in total cholesterol serum concentration (in words)” value is listed as “no significant changes”. For the same compound, in experiment [7], the “HDL cholesterol serum concentration” value is reported as 0.50 ± 0.12 !! mmol/l, the “LDL cholesterol serum concentration” value came to 0.56 ± 0.17 mmol/L, the “Serum total cholesterol concentration” value was determined as 1.03 ± 0.26 mmol/L and the “LDL:HDL Ratio (ratios of means)” value was determined as 1.12. For the same compound, in experiment [7] (5 days treatment, MKH 4 mg/kg), the “Change in HDL levels (in words)” value is listed as “A decrease was observed”.
As for `C=C1C[C@@]23CC[C@H]4[C@@](C)(CCC[C@@]4(C)C(=O)O[C@@H]4O[C@H](CO)[C@@H](O)[C@H](O)[C@H]4O)[C@@H]2CC[C@]1(O[C@@H]1O[C@H](CO)[C@@H](O)[C@H](O)[C@H]1O[C@@H]1O[C@H](CO)[C@@H](O)[C@H](O)[C@H]1O)C3` [Stevioside], the “Effect on C-peptide (in words)” value in experiment [2] (5 days treatment) is recorded as “significant increases”. Also, the “C peptide serum concentration” value in experiment [2] amounted to 230.12 ± 28.45 pmol/L. Further, in experiment [3], the “Effect on C peptide levels (in words)” value is given as “Neither stevioside or 3α,7α-dihydroxy-12-oxo-5β-cholanate alone had statistically significant effects” and the “C peptide serum concentration” value was 294 ± 93.2 pmol/L. In addition, in experiment [4], the “Glucose blood concentration, After OGTT” value was determined as 28.03 ± 1.08 mmol/L; the “Glucose blood concentration, After treatment (one dose daily for 5 days)” value was found to be 22.53 ± 1.07 mmol/L; the “Glucose blood concentration, Before treatment” value was determined as 25.14 ± 1.87 mmol/L; the “Effect on glucose levels under increased glucose loading during the OGTT (in words)” value is listed as “beneficial effects”. Also, in experiment [5], the “Glucose blood concentration, After OGTT” value was found to be 11.4 ± 2.9 mmol/L; the “Glucose blood concentration, After treatment (one dose daily for 5 days)” value is 5.47 ± 0.67 mmol/L; the “Glucose blood concentration, Before treatment” value is given as 6.95 ± 0.99 mmol/L. For the same compound, in experiment [6], the “Change in HDL serum cholesterol concentration (in words)” value was “no significant changes”, the “Change in LDL serum cholesterol concentration versus control (in words)” value is “significantly decreased (one third of control values)”, the “Change in total cholesterol serum concentration (in words)” value is “no significant changes” and the “HDL serum cholesterol concentration” value was 0.78 ± 0.18 mmol/L. Further, in experiment [6], the “LDL serum cholesterol concentration” value is 0.1 ± 0.08 mmol/L, the “Serum total cholesterol concentration” value was found to be 1.1 ± 0.30 mmol/L and the “LDL:HDL Ratio (ratios of means)” value came to 0.13. Further, in experiment [7] (5 days treatment), the “Change in LDL cholesterol levels (in words)” value is reported as “highly significant decrease” and the “Change in total cholesterol serum concentration (in words)” value is on record as “no significant changes”. In addition, in experiment [7], the “HDL cholesterol serum concentration” value was 0.85 ± 0.20 mmol/L, the “LDL cholesterol serum concentration” value amounted to 0.42 ± 0.09 mmol/L, the “Serum total cholesterol concentration” value amounted to 1.39 ± 0.31 mmol/L and the “LDL:HDL Ratio (ratios of means)” value was 0.49.
